Measured values published in PubChem BioAssay AID250 (DTP/NCI, 2004).
Where “and” joins values, the source holds several entries; their conditions need not be identical. Equal entries are not always repeated. Inconclusive results and toxic doses are left out.

System: BDF1 mice, L1210 leukemia sc, survival T/C
Assay: NCI In Vivo Anticancer Drug Screen. Data for tumor model L1210 Leukemia (subcutaneous) in B6D2F1 (BDF1) mice
Conditions: vehicle: saline, higher = longer survival
Outline: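 Transplantable tumor-bearing mice; survival or tumor size recorded; result = T/C, treated vs vehicle control.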

[1] = endpoint: median survival time, dose: 3.0 mg/kg/injection, schedule: Q01DX Z (sc)
[2] = endpoint: median survival time, dose: 5.0 mg/kg/injection, schedule: Q01DX Z (sc)
[3] = endpoint: median survival time, dose: 39.0 mg/kg/injection, schedule: Q01DX Z (sc)

## C=CC(CO)N1CC1 (stereo unspecified)
endpoint: median survival time, dose: 1.08 mg/kg/injection, schedule: Q01DX Z (sc)
  T/C: 100 % of control
endpoint: median survival time, dose: 1.8 mg/kg/injection, schedule: Q01DX Z (sc)
  T/C: 100 % of control
endpoint: median survival time, dose: 1.8 mg/kg/injection, schedule: Q02DX Z (sc)
  T/C: 100 % of control
[1]
  T/C: 100 % of control
endpoint: median survival time, dose: 3.0 mg/kg/injection, schedule: Q02DX Z (sc)
  T/C: 105 % of control
[2]
  T/C: 90 % of control and 100 % of control
endpoint: median survival time, dose: 5.0 mg/kg/injection, schedule: Q02DX Z (sc)
  T/C: 100 % of control
endpoint: median survival time, dose: 5.0 mg/kg/injection, schedule: Q## X Z (sc)
  T/C: 100 % of control
endpoint: median survival time, dose: 7.8 mg/kg/injection, schedule: Q01DX Z (sc)
  T/C: 100 % of control
endpoint: median survival time, dose: 8.4 mg/kg/injection, schedule: Q01DX001 (sc)
  T/C: 100 % of control
endpoint: median survival time, dose: 8.4 mg/kg/injection, schedule: Q02DX Z (sc)
  T/C: 100 % of control
endpoint: median survival time, dose: 8.4 mg/kg/injection, schedule: Q## X Z (sc)
  T/C: 100 % of control
endpoint: median survival time, dose: 14.0 mg/kg/injection, schedule: Q01DX001 (sc)
  T/C: 100 % of control
endpoint: median survival time, dose: 14.0 mg/kg/injection, schedule: Q01DX Z (sc)
  T/C: 100 % of control
endpoint: median survival time, dose: 14.0 mg/kg/injection, schedule: Q02DX Z (sc)
  T/C: 100 % of control
endpoint: median survival time, dose: 14.0 mg/kg/injection, schedule: Q## X Z (sc)
  T/C: 100 % of control
endpoint: median survival time, dose: 23.0 mg/kg/injection, schedule: Q01DX001 (sc)
  T/C: 100 % of control
endpoint: median survival time, dose: 23.0 mg/kg/injection, schedule: Q01DX Z (sc)
  T/C: 90 % of control and 110 % of control
endpoint: median survival time, dose: 23.0 mg/kg/injection, schedule: Q02DX Z (sc)
  T/C: 100 % of control
endpoint: median survival time, dose: 23.0 mg/kg/injection, schedule: Q## X Z (sc)
  T/C: 100 % of control
endpoint: median survival time, dose: 36.0 mg/kg/injection, schedule: Q01DX Z (sc)
  T/C: 105 % of control
endpoint: median survival time, dose: 37.0 mg/kg/injection, schedule: Q02DX Z (sc)
  T/C: 100 % of control
endpoint: median survival time, dose: 39.0 mg/kg/injection, schedule: Q01DX001 (sc)
  T/C: 110 % of control
[3]
  T/C: 95 % of control and 100 % of control
endpoint: median survival time, dose: 39.0 mg/kg/injection, schedule: Q## X Z (sc)
  T/C: 100 % of control
endpoint: median survival time, dose: 65.0 mg/kg/injection, schedule: Q01DX001 (sc)
  T/C: 120 % of control
endpoint: median survival time, dose: 65.0 mg/kg/injection, schedule: Q02DX Z (sc)
  T/C: 100 % of control
endpoint: median survival time, dose: 65.0 mg/kg/injection, schedule: Q## X Z (sc)
  T/C: 120 % of control
endpoint: median survival time, dose: 108.0 mg/kg/injection, schedule: Q01DX001 (sc)
  T/C: 115 % of control
endpoint: median survival time, dose: 108.0 mg/kg/injection, schedule: Q## X Z (sc)
  T/C: 115 % of control

## O=c1[nH]cc(F)c(=O)[nH]1
endpoint: mean survival time, dose: 65.0 mg/kg/injection, schedule: Q07DX009 (sc)
  T/C: 112 % of control
endpoint: mean survival time, dose: 108.0 mg/kg/injection, schedule: Q07DX009 (sc)
  T/C: 99 % of control
endpoint: mean survival time, dose: 180.0 mg/kg/injection, schedule: Q07DX009 (sc)
  T/C: 113 % of control
endpoint: mean survival time, dose: 300.0 mg/kg/injection, schedule: Q07DX009 (sc)
  T/C: 162 % of control
endpoint: median survival time, dose: 2.5 mg/kg/injection, schedule: Q01DX009 (ip)
  T/C: 93 % of control and 100 % of control
[1]
  T/C: 104 % of control
endpoint: median survival time, dose: 3.02 mg/kg/injection, schedule: Q01DX Z (sc)
  T/C: 100 % of control
endpoint: median survival time, dose: 4.0 mg/kg/injection, schedule: Q01DX Z (sc)
  T/C: 105 % of control
endpoint: median survival time, dose: 5.0 mg/kg/injection, schedule: Q01DX009 (ip)
  T/C: 94 % of control and 100 % of control and 102 % of control
endpoint: median survival time, dose: 5.0 mg/kg/injection, schedule: Q01DX009 (sc)
  T/C: 103 % of control
[2]
  T/C: 108 % of control
endpoint: median survival time, dose: 5.04 mg/kg/injection, schedule: Q01DX Z (sc)
  T/C: 100 % of control
endpoint: median survival time, dose: 8.4 mg/kg/injection, schedule: Q01DX009 (ip)
  T/C: 110 % of control
endpoint: median survival time, dose: 8.4 mg/kg/injection, schedule: Q01DX009 (sc)
  T/C: 114 % of control
endpoint: median survival time, dose: 8.4 mg/kg/injection, schedule: Q01DX013 (sc)
  T/C: 111 % of control
endpoint: median survival time, dose: 8.4 mg/kg/injection, schedule: Q01DX Z (sc)
  T/C: 105 % of control and 108 % of control and 116 % of control
endpoint: median survival time, dose: 10.0 mg/kg/injection, schedule: Q01DX009 (ip)
  T/C: 103 % of control and 109 % of control
endpoint: median survival time, dose: 14.0 mg/kg/injection, schedule: Q01DX009 (ip)
  T/C: 121 % of control
endpoint: median survival time, dose: 14.0 mg/kg/injection, schedule: Q01DX013 (sc)
  T/C: 150 % of control
endpoint: median survival time, dose: 14.0 mg/kg/injection, schedule: Q04DX003 (ip)
  T/C: 100 % of control
endpoint: median survival time, dose: 14.0 mg/kg/injection, schedule: Q04DX003 (sc)
  T/C: 103 % of control
endpoint: median survival time, dose: 16.0 mg/kg/injection, schedule: Q01DX Z (sc)
  T/C: 122 % of control
endpoint: median survival time, dose: 23.0 mg/kg/injection, schedule: Q01DX009 (sc)
  T/C: 154 % of control
endpoint: median survival time, dose: 23.0 mg/kg/injection, schedule: Q01DX013 (sc)
  T/C: 161 % of control and 163 % of control
endpoint: median survival time, dose: 23.0 mg/kg/injection, schedule: Q04DX003 (ip)
  T/C: 107 % of control
endpoint: median survival time, dose: 23.0 mg/kg/injection, schedule: Q04DX003 (sc)
  T/C: 102 % of control
endpoint: median survival time, dose: 23.3 mg/kg/injection, schedule: Q01DX Z (sc)
  T/C: 108 % of control
endpoint: median survival time, dose: 38.9 mg/kg/injection, schedule: Q01DX Z (sc)
  T/C: 100 % of control
endpoint: median survival time, dose: 39.0 mg/kg/injection, schedule: Q01DX009 (ip)
  T/C: 109 % of control
endpoint: median survival time, dose: 39.0 mg/kg/injection, schedule: Q01DX009 (sc)
  T/C: 121 % of control
endpoint: median survival time, dose: 39.0 mg/kg/injection, schedule: Q01DX013 (sc)
  T/C: 166 % of control and 167 % of control
[3]
  T/C: 163 % of control and 175 % of control
endpoint: median survival time, dose: 64.0 mg/kg/injection, schedule: Q01DX Z (sc)
  T/C: 161 % of control
endpoint: median survival time, dose: 65.0 mg/kg/injection, schedule: Q01DX009 (ip)
  T/C: 101 % of control
endpoint: median survival time, dose: 65.0 mg/kg/injection, schedule: Q01DX009 (sc)
  T/C: 107 % of control
endpoint: median survival time, dose: 65.0 mg/kg/injection, schedule: Q04DX003 (sc)
  T/C: 151 % of control
endpoint: median survival time, dose: 65.0 mg/kg/injection, schedule: Q07DX009 (sc)
  T/C: 114 % of control
endpoint: median survival time, dose: 65.0 mg/kg/injection, schedule: Q07DX Z (sc)
  T/C: 115 % of control
endpoint: median survival time, dose: 108.0 mg/kg/injection, schedule: Q01DX Z (sc)
  T/C: 91 % of control
endpoint: median survival time, dose: 108.0 mg/kg/injection, schedule: Q04DX003 (ip)
  T/C: 173 % of control
endpoint: median survival time, dose: 108.0 mg/kg/injection, schedule: Q04DX003 (sc)
  T/C: 187 % of control
endpoint: median survival time, dose: 108.0 mg/kg/injection, schedule: Q07DX009 (sc)
  T/C: 102 % of control
endpoint: median survival time, dose: 108.0 mg/kg/injection, schedule: Q07DX Z (sc)
  T/C: 105 % of control
endpoint: median survival time, dose: 128.0 mg/kg/injection, schedule: Q01DX Z (sc)
  T/C: 155 % of control
endpoint: median survival time, dose: 180.0 mg/kg/injection, schedule: Q01DX Z (sc)
  T/C: 120 % of control
endpoint: median survival time, dose: 180.0 mg/kg/injection, schedule: Q04DX003 (ip)
  T/C: 121 % of control
endpoint: median survival time, dose: 180.0 mg/kg/injection, schedule: Q04DX003 (sc)
  T/C: 184 % of control
endpoint: median survival time, dose: 180.0 mg/kg/injection, schedule: Q07DX009 (sc)
  T/C: 114 % of control
endpoint: median survival time, dose: 180.0 mg/kg/injection, schedule: Q07DX Z (sc)
  T/C: 115 % of control
endpoint: median survival time, dose: 300.0 mg/kg/injection, schedule: Q07DX009 (sc)
  T/C: 169 % of control
endpoint: median survival time, dose: 300.0 mg/kg/injection, schedule: Q07DX Z (sc)
  T/C: 168 % of control
